Measurements reported in US10689367B2, “Triazole pyridyl compounds as agonists of the APJ receptor” (AMGEN INC., priority 2016, dated 2020).

Target: human APJ receptor (Homo sapiens (Human), UniProt P35414)
Assay: [35S]GTPγS binding assay on membranes from CHO cells stably expressing human APJ receptor
Format: biochemical
Conditions: membranes of CHO cells stably expressing human APJ receptor, read-out: Activity hAPJ SPA EC50 IP
In short: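 Agonist EC50 values come from non-linear regression of mean data from several independent runs. Membranes of CHO cells stably expressing human APJ were incubated 90 min at room temperature with [35S]GTPγS in buffer with optimized GDP, MgCl2 and NaCl, then read on a microplate imager.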

Chain of human APJ receptor (P35414 whole entry): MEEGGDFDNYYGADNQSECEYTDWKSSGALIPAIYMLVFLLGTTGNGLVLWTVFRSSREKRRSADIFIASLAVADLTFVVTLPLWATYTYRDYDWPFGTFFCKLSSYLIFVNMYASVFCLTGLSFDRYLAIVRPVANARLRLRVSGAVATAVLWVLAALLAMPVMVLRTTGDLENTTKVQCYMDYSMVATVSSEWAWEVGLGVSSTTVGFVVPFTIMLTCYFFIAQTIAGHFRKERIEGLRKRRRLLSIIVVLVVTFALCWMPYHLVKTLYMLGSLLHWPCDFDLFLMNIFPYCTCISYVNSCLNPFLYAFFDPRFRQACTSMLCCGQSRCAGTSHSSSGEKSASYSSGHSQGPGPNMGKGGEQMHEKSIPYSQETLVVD

| SMILES | EC50 [nM] |
| --- | --- |
| CO[C@H](c1ncc(Cl)cn1)[C@H](C)S(=O)(=O)Nc1nnc(-c2cccnc2)n1C(C)C [Example 134.0, (1R,2S)-1-(5-chloro-2-pyrimidinyl)-1-methoxy-N-(4-(2-propanyl)-5-(3-pyridinyl)-4H-1,2,4-triazol-3-yl)-2-propanesulfonamide] | 170 |
| CO[C@H](c1ncc(Cl)cn1)[C@H](C)S(=O)(=O)Nc1nnc(-c2ccncc2)n1C(C)C [Example 135.0, (1R,2S)-1-(5-chloro-2-pyrimidinyl)-1-methoxy-N-(4-(2-propanyl)-5-(4-pyridinyl)-4H-1,2,4-triazol-3-yl)-2-propanesulfonamide] | 1900 |
| CO[C@H](c1ncc(Cl)cn1)[C@H](C)S(=O)(=O)Nc1nnc(-c2ccccn2)n1C(C)C [Example 136.0, (1R,2S)-1-(5-chloro-2-pyrimidinyl)-1-methoxy-N-(4-(2-propanyl)-5-(2-pyridinyl)-4H-1,2,4-triazol-3-yl)-2-propanesulfonamide] | 57 |
| COc1cccc(-c2nnc(NS(=O)(=O)[C@@H](C)[C@H](OC)c3ncc(Cl)cn3)n2CC2CCO2)n1 (stereo partly drawn) [Example 137.0, (1R,2S)-1-(5-chloropyrimidin-2-yl)-1-methoxy-N-(5-(6-methoxypyridin-2-yl)-4-(oxetan-2-ylmethyl)-4H-1,2,4-triazol-3-yl)propane-2-sulfonamide] | 22 |
| [2H]C1([2H])C(n2c(NS(=O)(=O)[C@@H](C)[C@H](OC)c3ncc(Cl)cn3)nnc2-c2cccc(OC)n2)C1([2H])[2H] [Example 148.0, (1R,2S)-1-(5-Chloropyrimidin-2-yl)-N-(4-(cyclopropyl-2,2,3,3-d4)-5-(6-methoxypyridin-2-yl)-4H-1,2,4-triazol-3-yl)-1-methoxypropane-2-sulfonamide] | 6.8 |
| CO[C@H](c1ncc(Cl)cn1)[C@H](C)S(=O)(=O)Nc1nnc(-c2cncc(C)c2)n1C1CC1 [Example 149.0, (1R,2S)-1-(5-Chloropyrimidin-2-yl)-N-(4-cyclopropyl-5-(5-methylpyridin-3-yl)-4H-1,2,4-triazol-3-yl)-1-methoxypropane-2-sulfonamide] | 36 |
| COc1cccc(-c2nnc(NS(=O)(=O)[C@@H](C)[C@H](OC)c3ncc(Cl)cn3)n2C2C3(CC3)C23CC3)n1 [Example 163.0, (1R,2S)-1-(5-Chloropyrimidin-2-yl)-N-(4-(dispiro[2.0.24.13]heptan-7-yl)-5-(6-methoxypyridin-2-yl)-4H-1,2,4-triazol-3-yl)-1-methoxypropane-2-sulfonamide] | 52 |
| [2H]C1([2H])C(n2c(NS(=O)(=O)[C@@H](C)[C@@H](OC(C)C)c3ncc(C)cn3)nnc2-c2cccc(OC)n2)C1([2H])[2H] [Example 164.0, (1S,2S)—N-(4-(Cyclopropyl-2,2,3,3-d4)-5-(6-methoxypyridin-2-yl)-4H-1,2,4-triazol-3-yl)-1-isopropoxy-1-(5-methylpyrimidin-2-yl)propane-2-sulfonamide] | 11 |
| COc1cccc(-c2nnc(NS(=O)(=O)[C@@H](C)[C@H](OC)c3ncc(Cl)cn3)n2[C@@H]2C[C@@H]2F)n1 [Example 169.0, (1R,2S)-1-(5-Chloropyrimidin-2-yl)-N-(4-((1R,2S)-2-fluorocyclopropyl)-5-(6-methoxypyridin-2-yl)-4H-1,2,4-triazol-3-yl)-1-methoxypropane-2-sulfonamide] | 20 |
| COc1ccc(Cn2c(NS(=O)(=O)[C@@H](C)[C@H](OC)c3ncc(Cl)cn3)nnc2-c2cccc(OC)n2)cc1 [Example 170.0, (1R,2S)-1-(5-chloropyrimidin-2-yl)-1-methoxy-N-(4-(4-methoxybenzyl)-5-(6-methoxypyridin-2-yl)-4H-1,2,4-triazol-3-yl)propane-2-sulfonamide] | 0.76 |
| COCC(COC)n1c(NS(=O)(=O)[C@@H](C)[C@@H](OC(C)C)c2ncc(F)cn2)nnc1-c1cccc(OC)n1 [Example 171.0, (1S,2S)-N-(4-(1,3-dimethoxy-2-propanyl)-5-(6-methoxy-2-pyridinyl)-4H-1,2,4-triazol-3-yl)-1-(5-fluoro-2-pyrimidinyl)-1-(2-propanyloxy)-2-propanesulfonamide] | 0.37 |
| COCC(COC)n1c(NS(=O)(=O)[C@@H](C)[C@@H](OC(C)C)c2ncc(OC)cn2)nnc1-c1cccc(OC)n1 [Example 172.0, (1S,2S)-N-(4-(1,3-dimethoxy-2-propanyl)-5-(6-methoxy-2-pyridinyl)-4H-1,2,4-triazol-3-yl)-1-(5-methoxy-2-pyrimidinyl)-1-(2-propanyloxy)-2-propanesulfonamide] | 1.4 |
| COC[C@H](C)n1c(NS(=O)(=O)[C@@H](C)[C@H](C)c2ncc(Cl)cn2)nnc1-c1cccc(OC)n1 [Example 174.0, (2S,3R)-3-(5-chloro-2-pyrimidinyl)-N-(4-((2S)-1-methoxy-2-propanyl)-5-(6-methoxy-2-pyridinyl)-4H-1,2,4-triazol-3-yl)-2-butanesulfonamide] | 3.3 |
| COC[C@H](C)n1c(NS(=O)(=O)[C@@H](C)[C@H](C)c2ncc(Cl)cn2)nnc1-c1ccccn1 [Example 175.0, (2S,3R)-3-(5-chloro-2-pyrimidinyl)-N-(4-((2S)-1-methoxy-2-propanyl)-5-(2-pyridinyl)-4H-1,2,4-triazol-3-yl)-2-butanesulfonamide] | 30 |
| COC[C@H](C)n1c(NS(=O)(=O)[C@@H](C)[C@H](C)c2ncc(Cl)cn2)nnc1-c1cncc(C)c1 [Example 176.0, (2S,3R)-3-(5-chloro-2-pyrimidinyl)-N-(4-((2S)-1-methoxy-2-propanyl)-5-(5-methyl-3-pyridinyl)-4H-1,2,4-triazol-3-yl)-2-butanesulfonamide] | 110 |
| COc1cccc(-c2nnc(NS(=O)(=O)[C@@H](C)[C@@H](OC(C)C)c3ncc(Cl)cn3)n2C(C)C)n1 [Example 177.0, (1S,2S)-1-(5-chloro-2-pyrimidinyl)-N-(5-(6-methoxy-2-pyridinyl)-4-(2-propanyl)-4H-1,2,4-triazol-3-yl)-1-(2-propanyloxy)-2-propanesulfonamide] | 8.9 |
| COC[C@@H](C)n1c(NS(=O)(=O)[C@@H](C)[C@@H](OC(C)C)c2ncc(Cl)cn2)nnc1-c1cccc(OC)n1 [Example 178.0, (1S,2S)-1-(5-chloro-2-pyrimidinyl)-N-(4-((2R)-1-methoxy-2-propanyl)-5-(6-methoxy-2-pyridinyl)-4H-1,2,4-triazol-3-yl)-1-(2-propanyloxy)-2-propanesulfonamide] | 0.32 |
| COC[C@H](C)n1c(NS(=O)(=O)[C@@H](C)[C@@H](OC(C)C)c2ncc(Cl)cn2)nnc1-c1cccc(OC)n1 [Example 179.0, (1S,2S)-1-(5-chloro-2-pyrimidinyl)-N-(4-((2S)-1-methoxy-2-propanyl)-5-(6-methoxy-2-pyridinyl)-4H-1,2,4-triazol-3-yl)-1-(2-propanyloxy)-2-propanesulfonamide] | 0.64 |
| COc1cccc(-c2nnc(NS(=O)(=O)[C@@H](C)[C@H](OC)c3ncc(Cl)cn3)n2[C@H]2C[C@@H](OC)C2)n1 [Example 180.0, (1R,2S)-1-(5-chloro-2-pyrimidinyl)-1-methoxy-N-(4-(cis-3-methoxycyclobutyl)-5-(6-methoxy-2-pyridinyl)-4H-1,2,4-triazol-3-yl)-2-propanesulfonamide] | 74 |
| COc1cccc(-c2nnc(NS(=O)(=O)[C@@H](C)[C@H](OC)c3ncc(Cl)cn3)n2[C@H]2C[C@H](OC)C2)n1 [Example 181.0, (1R,2S)-1-(5-chloro-2-pyrimidinyl)-1-methoxy-N-(4-(trans-3-methoxycyclobutyl)-5-(6-methoxy-2-pyridinyl)-4H-1,2,4-triazol-3-yl)-2-propanesulfonamide] | 190 |
| COc1cccc(-c2nnc(NS(=O)(=O)[C@@H](C)[C@H](OC)c3ncc(Cl)cn3)n2C2CCC2)n1 [Example 182.0, (1R,2S)-1-(5-chloro-2-pyrimidinyl)-N-(4-cyclobutyl-5-(6-methoxy-2-pyridinyl)-4H-1,2,4-triazol-3-yl)-1-methoxy-2-propanesulfonamide] | 25 |
| COc1cccc(-c2nnc(NS(=O)(=O)[C@@H](C)[C@H](OC)c3ncc(Cl)cn3)n2C2CCCC2)n1 [Example 183.0, (1R,2S)-1-(5-chloro-2-pyrimidinyl)-N-(4-cyclopentyl-5-(6-methoxy-2-pyridinyl)-4H-1,2,4-triazol-3-yl)-1-methoxy-2-propanesulfonamide] | 4.8 |
| COc1cccc(-c2nnc(NS(=O)(=O)[C@@H](C)[C@H](OC)c3ncc(Cl)cn3)n2C2CCCCC2)n1 [Example 184.0, (1R,2S)-1-(5-chloro-2-pyrimidinyl)-N-(4-cyclohexyl-5-(6-methoxy-2-pyridinyl)-4H-1,2,4-triazol-3-yl)-1-methoxy-2-propanesulfonamide] | 7.3 |
| COc1cccc(-c2nnc(NS(=O)(=O)[C@@H](C)[C@H](OC)c3ncc(Cl)cn3)n2[C@@H]2[C@@H](OC)CCC[C@H]2OC)n1 [Example 185.0, (1R,2S)-1-(5-chloro-2-pyrimidinyl)-N-(4-((1r,2R,6 S)-2,6-dimethoxycyclohexyl)-5-(6-methoxy-2-pyridinyl)-4H-1,2,4-triazol-3-yl)-1-methoxy-2-propanesulfonamide] | 7.2 |
| COc1cccc(-c2nnc(NS(=O)(=O)[C@@H](C)[C@H](OC)c3ncc(Cl)cn3)n2Cc2cnoc2)n1 [Example 186.0, (1R,2S)-1-(5-chloropyrimidin-2-yl)-N-(4-(isoxazol-4-ylmethyl)-5-(6-methoxypyridin-2-yl)-4H-1,2,4-triazol-3-yl)-1-methoxypropane-2-sulfonamide] | 98 |
| COc1cccc(-c2nnc(NS(=O)(=O)[C@@H](C)[C@H](C)c3ncc(Cl)cn3)n2Cc2cnoc2)n1 [Example 187.0, (2S,3R)-3-(5-chloropyrimidin-2-yl)-N-(4-(isoxazol-4-ylmethyl)-5-(6-methoxypyridin-2-yl)-4H-1,2,4-triazol-3-yl)butane-2-sulfonamide] | 650 |
| COc1cccc(-c2nnc(NS(=O)(=O)[C@@H](C)[C@H](OC)c3cnc(C)cn3)n2Cc2cnoc2)n1 [Example 188.0, (1R,2S)-N-(4-(isoxazol-4-ylmethyl)-5-(6-methoxypyridin-2-yl)-4H-1,2,4-triazol-3-yl)-1-methoxy-1-(5-methylpyrazin-2-yl)propane-2-sulfonamide] | 1400 |
